For series [1], the system named is Mice calverial osteoblast. Kind of series: Apoptosis assay (Annexin V/PI, FACS) in serum deprived MCOs. In kind it is cell-based. Conditions: 10 nM, 24 h. Here is the method: Annexin V/PI staining for fluorescence-activated cell sorting (FACS) analysis was carried out using Calbiochem Annexin V-FITC Apoptosis Detection Kit (Calbiochem, USA) according to manufacturer's instructions.

Series [2] concerns Mice Calvarial osteoblasts (MCOs). Kind of series: Mineralization assay (Alizarin red-S). Type of series: cell-based. Conditions: 10 nM, 21 days, vs control group. Here is the method: Mineralization assay was carried out to assess the mineralizing ability and thus bone formation of osteoblasts cells. […] At the end of the experiment, the cells were washed with PBS and fixed with paraformaldehyde (4%) in PBS for 15 minutes. Alizarin red-S stain was used for staining mineralized nodules, followed by extraction of the stain using 10% acetic acid and 10% ammonium hydroxide for colorimetric quantification at 405 nm.

In a further series the target is 20 S proteasome (Rattus norvegicus, UniProt P28075). Nature of the series: 20 S proteasome activity assay in calvarial osteoblast cells. As to conditions: for inhibition of 20 S proteasomal activity: calvarial osteoblast cells.
The conditions of series [3]: Mundy GR et al, 2005; cited from earlier work.
The next series concerns Smads. Conditions: Ito y et al, 2011; cited from earlier work.
In series [4] the test system is Mice Calvarial osteoblasts (MCOs). Kind of series: Quantitative real time PCR of osteogenic genes in MCOs. Type of series: cell-based. As to conditions: 10 nM. Here is the method:
Cells were homogenized using 1 ml of TRIzol reagent (Invitrogen, Carlsbad, Calif., USA), and total RNA was extracted according to the manufacturer's protocol. cDNA was synthesized using RevertAid™ First Strand cDNA synthesis kit (#K1621 Fermentas, Canada) from 1 μg of total RNA. Quantitative real time PCR amplifications were performed in The LightCycler® 480 Real-Time PCR System (Roche Diagnostics, USA) using LightCycler SYBR Green (Roche Diagnostics, USA) according to the manufacturer's instruction. The sequences of primer sets for Smurf1, Smurf2, RunX2, BMP-2, alkaline phosphatase (ALP), osteocalcin (OCN), Collagen I (Coll) and GAPDH mRNAs, target sites on mRNAs and product sizes by PCR are shown in FIG. 6. The quantity of each sample was normalized using the CT (threshold cycle) value obtained for the GAPDH mRNA amplifications.
Background: In qPCR the cycle at which signal appears reflects the starting amount.

The subject of series [5] is serum osteocalcin in OVx mice. Kind of series: Bone turnover marker, serum osteocalcin EIA. In kind it is in vivo. Conditions: 60 days, vs OVx+vehicle. An excerpt:
Rat-MID™ Osteocalcin EIA (Immunodiagnostic, UK) performed using serum from treated and vehicle groups using manufacturer's protocol as provided in the kit.

The next series relates to Mouse bone marrow cells. Kind of series: Osteoclast culture, real-time expression of TRAP and RANK. In kind it is cell-based. As to conditions: bone marrow cultures with MCSF and RANKL, 6 days, vs control vehicle. Here is the method: In vitro osteoclastogenesis was performed using standard protocol. Mouse bone marrow cells were flushed from femur using alpha-MEM. Cells were seeded in flask overnight in Osteoclast medium (alpha MEM, 10% FCS, antibiotic, EBSS, 10 ng/ml MCSF). […] The medium was replaced after every 48 hours. After 6 days of culture, the cells were washed with PBS and then fixed in 4% paraformaldehyde or used for RNA extraction using TRIZOL for analysis of TRAP, RANK mRNA levels by real-time PCR. Fixed cells were followed by TRAP staining using the standardized protocol.

A further series concerns uterus of OVx mice. Kind of series: Estrogenicity studies (uterine weight). In kind it is in vivo. Conditions: all doses. The protocol:
The uterus of each mouse was weighed and then fixed in 4% paraformaldehyde. A middle segment of each uterus was dehydrated in ascending grades of isopropanol, cleared in xylene and sections of about 5 μm thickness was prepared. Haematoxylin and eosin staining was done of 5 μm transverse sections and representative images were captured. Leica Qwin-Semiautomatic Image Analysis software (Leica Microsystems GmbH) was used to measure total uterine area, luminal area and luminal epithelial height.

Series [6] concerns drill-hole injury in femur of Sham and OVx Balb/c mice. Kind of series: Fracture healing drill-hole study. Type of series: in vivo. An excerpt:
Sixty adult Balb/c mice (18-20 g each) were taken and divided into six groups of […] for the study. Each group included 12 animals per group. […] Mice were left for 8 weeks for the OVx mice to develop osteopenia. After 8 weeks, drill-hole injury was created in both sham and OVx groups. In mid femur region the front skin was incised straight and longitudinally 1 cm in length under anesthetic condition. After splitting the muscle, periosteum was stripped to expose the femoral bone surface. A drill-hole injury was made, 1 cm above the knee joint by inserting a drill bit with a diameter of 0.1 mm in the anterior portion of the diaphysis of the bilateral femurs. […] Each animal received intraperitoneal administration of fluorochrome calcein (20 mg·kg^−1) 24 h before autopsy. After 21 days of treatment as described above, all mice were euthanized and autopsied to collect their femurs for the measurement of bone micro architectural parameters at the drill hole site. Bones were embedded in acrylic material and 50 μm sections were made using an Isomet BoneCutter (Buehler, Lake Bluff, Ill. USA) and photographs were taken under confocal microscope LSM 510 Meta, Carl Zeiss, USA) aided with appropriate filters. The intensity of calcein binding, which is an indicator of the amount of new mineral deposition, was calculated using Carl Zeiss A M 4.2 image-analysis software.

The test system of series [7] is Mice primary osteoblast cells. Nature of the series: Cell proliferation assay (direct cell count and BrdU). As to conditions: 24 h. In kind it is cell-based. The protocol:
Mice primary osteoblast cells were plated at a density of 2.5×10^5 cells/ml/well in 12 well plates at 37° C. […] The cells were trypsinized and viable cells were counted with a hemocytometer using trypan blue dye exclusion. Cell counts were performed in duplicate and repeated in three cultures. […] Cell proliferation was determined using BrdU ELISA (from Calbiochem, Darmstadt, Germany) using manufacturer's instructions. For the last 3h of the 24 h stimulation, the, cells were trypsinized and 2000 cells/well were seeded in a-MEM supplemented with 10% fetal bovine serum, and the cells were pulsed with BrdU. Absorbance at dual wavelength of 450-540 nm was measured with a microplate reader.

Series [8] concerns Ovariectomized (OVx) Mice. Nature of the series: In vivo efficacy of WFA on ovariectomized (OVx) mice, μCT. Also noted: species or system Balb/c mice. As to conditions: doses 1, 5 and 10. The protocol:
The intraperitoneal dose for iPTH (40 μg·kg^-1 for 3 days/week) used in this study as known anabolic agent. […] For dynamic histomorphometry measurements each animal was administered intraperitoneally with fluorochromes tetracycline (20 mg·kg^-1) on day 30 […] and calcein (20 mg·kg^-1) on day 60 (8 weeks) after the commencement of various treatments. After 8 weeks of treatment, all mice were euthanized and autopsied to collect bones (i.e., tibias and femurs) for measurement of bone parameter. […] BMCs were cultured in bone marrow differentiation medium to induce mineralization for 18 days. Mineralization was quantified as described. Alizarin red S stain was used for staining mineralized nodules, followed by extraction of the stain for quantification. […] The plasma samples were analyzed by HPLC according to reported method with slight modification. Sky Scan 1076 μCT scanner (Aartselaar, Belgium) was used to carryout μCT scanning of excised bones as described before. The bone samples were scanned at a resolution of 9 μm and reconstruction was done using the Sky Scan Nrecon software. The X-ray source was set at 50 kV and […], with a pixel size of 9 μm. A hundred projections were acquired over an angul arrange of 180°. […] Trabecular thickness (Tb.Th) and structure mode index (SMI) was calculated according to the method of Hildebrand and Ruegsegger. […]

For series [9], the system named is Mice Calvarial osteoblasts (MCOs). Kind of series: Alkaline phosphatase (ALP) assay in mice calvarial osteoblasts. In kind it is cell-based. As to conditions: for ALP production / ALP activity compared with control: osteoblast differentiation medium, 1 pM to 1 μM; for dose most effective in stimulating ALP activity: dose range 1 pM to 1 μM. Here is the method: For each experiment, 1 to 2 day old […] were used to harvest 20 to 35 calvaria at room temperature (25° C.). Briefly, individual calvaria were surgically isolated from the skull, the sutures were segregated, and the adherent tissue material was cleaned by gentle scrapping. As described previously, the pooled calvarias were kept for repeated digestion (15 minutes/digestion) with 0.05% trypsin and 0.1% collagenase P to release the cells. First digestion was discarded and cells were collected from the next four digestions. These cells were cultured in a modified essential medium (a-MEM) containing 10% fetal calf serum (FCS) and 1% penicillin/streptomycin (complete growth medium). Cultures of MCOs were allowed to reach 80% confluence for the experiments.
For the measurement of ALP activity, MCOs at approximately 80% confluence were trypsinized, and 2×10^3 cells/well were seeded onto 96-well plates. […] At the end of incubation period, total ALP activity was measured using p-nitrophenylphosphate (PNPP) as substrate, and absorbance was read at 405 nm.

Where a SMILES comes first, the peptide text is derived from it. The star is where a group is joined. Cbz = O=C(OCc1ccccc1)*; OtBu = CC(C)(C)O*

Regarding `CC(C)C[C@H](NC(=O)[C@H](Cc1ccccc1)NC(=O)c1cnccn1)B(O)O` [Bzb, Bortezomib, reference compound], the “apoptosis of serum deprived MCOs” value in series [1] (0.5% FBS) was “comparable to standard control Bortizomib (Bzb)”. Moreover, in [2], the “mineralization (Alizarin-S dye extraction)” value was “comparable to Bzb treatment”. For the same compound, at 20 S proteasome, the “inhibition of 20 S proteasomal activity” value is on record as “comparable to Bzb”.

For `CC[C@H](C)[C@H](NC(=O)[C@H]([C@@H](C)CC)N(C)C(C)=O)C(=O)N[C@H](C(=O)N[C@@H](CC(C)C)C(=O)[C@@]1(C)CO1)[C@@H](C)O` [Epoxomicin], in series [3], the “Activity: bone volume and bone formation rate” value is on record as “Increases bone”.

On to `CC(=O)N[C@@H](CSC(=O)[C@]1([C@@H](O)C(C)C)NC(=O)[C@H](C)[C@@H]1O)C(=O)O` [Lactacystin, reference compound], for which the “inhibition of 20 S proteasomal activity” value against 20 S proteasome is on record as “significantly inhibits the 20 S proteasomal activity”. Besides, in the series with Smads, the “Activity: activity of Smads (in vitro)” value was “Increases”.

Take `CC[C@H](C)[C@H](NC(=O)OCc1ccccc1)C(=O)N[C@@H](CCC(=O)OC(C)(C)C)C(=O)N[C@@H](C)C(=O)N[C@H](C=O)CC(C)C` [PSI] (Cbz-IE(OtBu)AL-aldehyde): the “Activity: bone volume and bone formation rate” value in series [3] is on record as “Increases bone”.

For the compound `CC1=C(CO)C(=O)O[C@@H]([C@@H](C)[C@H]2CC[C@H]3[C@@H]4C[C@H]5O[C@]56[C@@H](O)C=CC(=O)[C@]6(C)[C@H]4CC[C@]23C)C1` [WFA, Withaferin A], the “mRNA expression of collagen I” value in [4] is on record as “stimulated mRNA expression of collagen I”. In series [4] (normalized to GAPDH), the “expression of osteogenic genes RunX2, OCN and Col I” value is “increased expression of RunX2, OCN and Col I”. Further, the “apoptotic cells (early and late)” value in [1] (serum deprived (0.5% FBS) MCOs) is 3%. For the same compound, the “serum osteocalcin (OCN) levels” value in series [5] is on record as “significant reduction in the levels of OCN”. The “mRNA levels of TRAP and RANK” value in the series with Mouse bone marrow cells was “significantly reduced mRNA levels of TRAP and RANK”. In [2], the “mineralization (Alizarin-S dye extraction)” value was “significant increase in mineralization”. Also, the uterine weight entry in the series on uterus of OVx mice is recorded as “uterine weight comparable to OVx group”. Further, the “earliest time of inhibition of proteasomal 20 S subunit activity” value on 20 S proteasome (10 nM) is on record as 3 h. For the same compound, the “maximum inhibition of proteasomal 20 S subunit activity” value on 20 S proteasome (10 nM, at 6 h, compared with positive control) was 40-50%. Further, the “callus mineralization / bridging of defect” value was “predominantly occupied mineralized callus, and the defect region was partially bridged” in series [6] (5 mg kg-1 d-1, after day 11 post drilling); “more increased mineralized callus within the intra medulla region to be remodeled to completely bridge the defect” in series [6] (10 mg kg-1 d-1, compared with 5 mg kg-1 d-1). Moreover, the “mineral deposition (intensity of calcein labeling in the drill hole)” value in series [6] (5 and 10 mg kg-1 d-1, 21 days, vs vehicle) is recorded as “increased mineral deposition”. Besides, the “mineral deposition in OVx mice” value in series [6] (OVx mice, 5 and 10 mg kg-1 d-1, vs OVx vehicle) is on record as “increased mineral deposition in OVx mice”. For the same compound, the “concentration that maximally stimulated MCO proliferation” value in [7] stood at 10 nM. For the same compound, the “osteoblast proliferation (direct cell count and BrdU incorporation)” value in series [7] (vs control vehicle set as 100) is “concentration dependently stimulated osteoblast proliferation”. Moreover, the “most effective dose (BV/TV, inter-dose comparison)” value in [8] came to 10 mg/kg/day. The “ALP activity compared to Bortizomib” value in [9] (10 nM, 48 h) is given as around 3 fold. Moreover, the “ALP production / ALP activity compared with control” value in [9] (48 h) is listed as “significantly increased ALP production”. Moreover, the “dose most effective in stimulating ALP activity” value (from here on “dose most effective”) in [9] amounted to 10 nM.

Consider `CC1=C(C)C(=O)O[C@@H]([C@@H](C)[C@@]2(O)CC[C@H]3[C@@H]4[C@@H]5O[C@@H]5[C@@]5(O)CC=CC(=O)[C@]5(C)[C@H]4CC[C@@]32C)C1` [WN, Withanone], for which, in series [4], the “mRNA expression of collagen I” value is on record as “stimulated mRNA expression of collagen I”. In series [9] (48 h), the “ALP production / ALP activity compared with control” value is reported as “did not stimulate ALP activity significantly”. The “dose most effective” value in series [9] worked out at 10 nM.

As to `CC1=C(C)C(=O)O[C@@H]([C@](C)(O)[C@H]2CC[C@H]3[C@@H]4[C@@H]5O[C@@H]5[C@@]5(O)CC=CC(=O)[C@]5(C)[C@H]4CC[C@]23C)C1` [WNA, Withanolide A], in series [4], the “mRNA expression of collagen I” value is “stimulated mRNA expression of collagen I”. Further, in series [9] (48 h), the “ALP production / ALP activity compared with control” value is “significantly increased ALP production”. Further, the “dose most effective” value in series [9] is on record as 10 nM.

These data come from patent US10596115B2, “Pharmaceutical composition for the treatment of diminution of bone tissue” (Council of Scientific & Industrial Research, priority 2013, dated 2020).
